Test [1] has as its target T1, CD73 (Homo sapiens (Human), UniProt P21589). Nature of the test: MDA-MB-231 Cell Based CD73 Activity Assay. Particulars: MDA-MB-231-GFP cells, RPMI medium with 10% human plasma, 200 uM AMP. Here is the method: MDA-MB-231 Cell Based CD73 Activity Assay
MDA-MB-231-GFP cells were seeded in 384-well plates (Greiner 781946) at a density of 10000 cells per well in 50 μL of RPMI medium with 10% HP (human plasma). Cells were plated into assay plate with compounds pre-spotted, for an overnight compound treatment. 50 μL of 400 μM AMP (final concentration 200 μM) using a Bio-tek dispenser. Plates were incubated for 100 mins. […] The samples were run using Rapid fire.

The target in test [2] is T1, CD73. Nature of the test: MDA-MB-231 Cell Based CD73 Activity Assay (DMEM). Conditions: MDA-MB-231-GFP cells, DMEM medium with 10% human plasma, 200 uM AMP.
In test [3] the target is T1, CD73. In kind it is biochemical. Conditions: 1 mM NaH2PO4 in enzyme buffer, CD73 0.3 nM, AMP 15 uM.

SMILES strings stand for the structures.

T1 sequence (P21589 27-574): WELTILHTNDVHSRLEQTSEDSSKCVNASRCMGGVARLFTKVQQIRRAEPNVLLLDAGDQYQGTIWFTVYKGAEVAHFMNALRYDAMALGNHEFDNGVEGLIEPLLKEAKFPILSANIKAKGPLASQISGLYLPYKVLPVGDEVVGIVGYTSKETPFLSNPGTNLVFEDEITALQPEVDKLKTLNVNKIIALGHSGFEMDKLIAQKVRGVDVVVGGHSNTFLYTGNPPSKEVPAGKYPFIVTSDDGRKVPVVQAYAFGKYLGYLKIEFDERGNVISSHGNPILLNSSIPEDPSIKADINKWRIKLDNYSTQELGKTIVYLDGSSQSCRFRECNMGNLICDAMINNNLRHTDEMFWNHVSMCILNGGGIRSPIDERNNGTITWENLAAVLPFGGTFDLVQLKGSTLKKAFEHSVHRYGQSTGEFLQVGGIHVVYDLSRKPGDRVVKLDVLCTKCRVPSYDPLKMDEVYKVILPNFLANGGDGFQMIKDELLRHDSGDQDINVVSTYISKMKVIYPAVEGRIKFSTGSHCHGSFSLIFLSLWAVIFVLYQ

The EC50 is the concentration giving half of the maximal effect. A lower EC50 goes with an effect from little substance. Turning to `O=c1[nH]cc(-c2cc([C@H]3C[C@@H]3c3ccc(OC(F)(F)F)cc3)c3nccn3n2)c(=O)[nH]1` (mixture of isomers) [Example 48, 5-(8-((1S,2S)-2-(4-(trifluoromethoxy)phenyl)cyclopropyl)imidazo[1,2-b]pyridazin-6-yl)pyrimidine-2,4(1H,3H)-dione and 5-(8-((1R,2R)-2-(4-(trifluoromethoxy)phenyl)cyclopropyl)imidazo[1,2-b]pyridazin-6-yl)pyrimidine-2,4(1H,3H)-dione], at CD73 [1], the EC50 amounted to 16.7 nM. In other words, the double-digit nanomolar range.
Same read-out and setting: as for `O=c1[nH]cc(-c2cc([C@H]3C[C@@H]3c3ccc(C(F)(F)F)c(F)c3)c3nccn3n2)c(=O)[nH]1` (mixture of isomers) [Example 100, 5-(8-((1S,2S)-2-(3-fluoro-4-(trifluoromethyl)phenyl)cyclopropyl)imidazo[1,2-b]pyridazin-6-yl)pyrimidine-2,4(1H,3H)-dione and 5-(8-((1R,2R)-2-(3-fluoro-4-(trifluoromethyl)phenyl)cyclopropyl)imidazo[1,2-b]pyridazin-6-yl)pyrimidine-2,4(1H,3H)-dione], the figure is 27.5 nM.
On the same count and under the same terms, as for `COc1ccccc1[C@H]1C[C@@H]1c1cc(-c2c[nH]c(=O)[nH]c2=O)nn2ccnc12` (mixture of isomers) [Example 101, 5-(8-((1S,2S)-2-(2-methoxyphenyl)cyclopropyl)imidazo[1,2-b]pyridazin-6-yl)pyrimidine-2,4(1H,3H)-dione and 5-(8-((1R,2R)-2-(2-methoxyphenyl)cyclopropyl)imidazo[1,2-b]pyridazin-6-yl)pyrimidine-2,4(1H,3H)-dione], the figure is 3.25 nM.
Still for that read-out and setting: the value for `O=c1[nH]cc(-c2cc([C@H]3C[C@@H]3C3CC(F)(F)C3)c3nccn3n2)c(=O)[nH]1` (mixture of isomers) [Example 106, 5-(8-((1S,2R)-2-(3,3-difluorocyclobutyl)cyclopropyl)imidazo[1,2-b]pyridazin-6-yl)pyrimidine-2,4(1H,3H)-dione and 5-(8-((1R,2S)-2-(3,3-difluorocyclobutyl)cyclopropyl)imidazo[1,2-b]pyridazin-6-yl)pyrimidine-2,4(1H,3H)-dione] was 93.5 nM.
The IC50 is the point on the concentration scale where inhibition reaches its midpoint. Low values mean higher potency, high ones lower potency. Molecule `CC1(C)C(=O)N(CC(F)(F)F)c2cc([C@H]3C[C@@H]3c3cc(-c4c[nH]c(=O)[nH]c4=O)nn4ccnc34)ccc21` [Example 703, 5-(8-((1S,2S)-2-(3,3-dimethyl-2-oxo-1-(2,2,2-trifluoroethyl)indolin-6-yl)cyclopropyl)imidazo[1,2-b]pyridazin-6-yl)pyrimidine-2,4(1H,3H)-dione] yielded an EC50 on CD73 [2] of 0.14 nM. For the same molecule, the 50% inhibitory concentration (IC50) at CD73 [3] was 1.24 nM.
On CD73 [2], `O=c1[nH]cc(-c2cc([C@H]3C[C@@H]3c3ccc4ccn(CC(F)(F)F)c4n3)c3nccn3n2)c(=O)[nH]1` [Example 704, 5-(8-((1S,2S)-2-(1-(2,2,2-trifluoroethyl)-1H-pyrrolo[2,3-b]pyridin-6-yl)cyclopropyl)imidazo[1,2-b]pyridazin-6-yl)pyrimidine-2,4(1H,3H)-dione] displayed an EC50 of 0.36 nM. For the same molecule, at CD73 [3], the IC50 is 0.73 nM.
The corresponding values for `O=c1[nH]cc(-c2cc([C@H]3C[C@@H]3c3cc4c(ccn4CC(F)(F)F)cn3)c3nccn3n2)c(=O)[nH]1` [Example 705, 5-(8-((1S,2S)-2-(1-(2,2,2-trifluoroethyl)-1H-pyrrolo[3,2-c]pyridin-6-yl)cyclopropyl)imidazo[1,2-b]pyridazin-6-yl)pyrimidine-2,4(1H,3H)-dione] are 0.07 nM and 0.4 nM.
At CD73 [2], `O=c1[nH]cc(-c2cc([C@H]3C[C@@H]3c3cc4c(cn3)c(F)cn4CC(F)(F)F)c3nccn3n2)c(=O)[nH]1` [Example 706, 5-(8-((1S,2S)-2-(3-fluoro-1-(2,2,2-trifluoroethyl)-1H-pyrrolo[3,2-c]pyridin-6-yl)cyclopropyl)imidazo[1,2-b]pyridazin-6-yl)pyrimidine-2,4(1H,3H)-dione] displayed a half-maximal effective concentration (EC50) of 0.15 nM. The molecule also had a half-inhibitory concentration (IC50) against CD73 [3] of 0.33 nM.
The like results for `O=c1[nH]cc(-c2cc([C@H]3C[C@@H]3c3ccc4ccn(CC(F)(F)F)c(=O)c4c3)c3nccn3n2)c(=O)[nH]1` [Example 707, 5-(8-((1S,2S)-2-(1-oxo-2-(2,2,2-trifluoroethyl)-1,2-dihydroisoquinolin-7-yl)cyclopropyl)imidazo[1,2-b]pyridazin-6-yl)pyrimidine-2,4(1H,3H)-dione] were, in that order, 8.88 nM and 2.65 nM.
The like results for `O=c1[nH]cc(-c2cc([C@H]3C[C@@H]3c3ccc4c(c3)c(=O)ccn4CC(F)(F)F)c3nccn3n2)c(=O)[nH]1` [Example 708, 5-(8-((1S,2S)-2-(4-oxo-1-(2,2,2-trifluoroethyl)-1,4-dihydroquinolin-6-yl)cyclopropyl)imidazo[1,2-b]pyridazin-6-yl)pyrimidine-2,4(1H,3H)-dione] were, in that order, 6.21 nM and 3.3 nM.
The corresponding values for `O=c1[nH]cc(-c2cc([C@H]3C[C@@H]3c3ccc4nccc(OCC(F)(F)F)c4c3)c3nccn3n2)c(=O)[nH]1` [Example 709, 5-(8-((1S,2S)-2-(4-(2,2,2-trifluoroethoxy)quinolin-6-yl)cyclopropyl)imidazo[1,2-b]pyridazin-6-yl)pyrimidine-2,4(1H,3H)-dione] are 0.4 nM and 1.24 nM.
As for `O=c1[nH]cc(-c2cc([C@H]3C[C@@H]3c3ccc4cncc(OCC(F)(F)F)c4c3)c3nccn3n2)c(=O)[nH]1` [Example 710, 5-(8-((1S,2S)-2-(4-(2,2,2-trifluoroethoxy)isoquinolin-6-yl)cyclopropyl)imidazo[1,2-b]pyridazin-6-yl)pyrimidine-2,4(1H,3H)-dione], the EC50 at CD73 [2] was found to be 4.06 nM. At CD73 [3], this molecule gave a half-inhibitory concentration (IC50) of 1.43 nM.
The corresponding values for `Cc1cc([C@H]2C[C@@H]2c2cc(-c3c[nH]c(=O)[nH]c3=O)nn3ccnc23)cc2c1cnn2CC(F)(F)F` [Example 714, 5-(8-((1S,2S)-2-(4-methyl-1-(2,2,2-trifluoroethyl)-1H-indazol-6-yl)cyclopropyl)imidazo[1,2-b]pyridazin-6-yl)pyrimidine-2,4(1H,3H)-dione] are 0.19 nM and 0.7 nM.
On CD73 [2], `O=C1N(CC(F)(F)F)c2cc([C@H]3C[C@@H]3c3cc(-c4c[nH]c(=O)[nH]c4=O)nc4ccnn34)ccc2C12CC2` [Example 715, 5-(7-((1S,2S)-2-(2′-oxo-1′-(2,2,2-trifluoroethyl)spiro[cyclopropane-1,3′-indolin]-6′-yl)cyclopropyl)pyrazolo[1,5-a]pyrimidin-5-yl)pyrimidine-2,4(1H,3H)-dione] came in with a concentration giving a half-maximal response (EC50) of 0.32 nM. This molecule yielded a half-maximal inhibitory concentration (IC50) against CD73 [3] of 1.42 nM.
The like results for `O=c1[nH]cc(-c2cc([C@H]3C[C@@H]3c3ccc4cnn(CC(F)(F)F)c4c3)n3ncc(F)c3n2)c(=O)[nH]1` [Example 716, 5-(3-fluoro-7-((1S,2S)-2-(1-(2,2,2-trifluoroethyl)-1H-indazol-6-yl)cyclopropyl)pyrazolo[1,5-a]pyrimidin-5-yl)pyrimidine-2,4(1H,3H)-dione] were, in that order, 0.28 nM and 0.35 nM.
The like results for `O=c1[nH]cc(-c2cc([C@H]3C[C@@H]3c3cnc4c(F)nn(CC(F)(F)F)c4c3)c3nccn3n2)c(=O)[nH]1` [Example 717, 5-[8-[(1S,2S)-2-[3-fluoro-1-(2,2,2-trifluoroethyl)pyrazolo[4,3-b]pyridin-6-yl]cyclopropyl]imidazo[1,2-b]pyridazin-6-yl]-1H-pyrimidine-2,4-dione] were, in that order, 0.26 nM and 0.69 nM.
The corresponding values for `O=c1[nH]cc(-c2cc([C@H]3C[C@@H]3c3cnc4c(F)nn(CC(F)(F)F)c4c3)c3ncc(Cl)n3n2)c(=O)[nH]1` [Example 719, 5-[3-chloro-8-[(1S,2S)-2-[3-fluoro-1-(2,2,2-trifluoroethyl)pyrazolo[4,3-b]pyridin-6-yl]cyclopropyl]imidazo[1,2-b]pyridazin-6-yl]-1H-pyrimidine-2,4-dione] are 0.46 nM and 0.51 nM.
`O=c1[nH]cc(-c2cc([C@H]3C[C@@H]3c3ccc4c(F)nn(CC(F)(F)F)c4c3)c3ncc(Cl)n3n2)c(=O)[nH]1` [Example 721, 5-[3-chloro-8-[(1S,2S)-2-[3-fluoro-1-(2,2,2-trifluoroethyl)indazol-6-yl]cyclopropyl]imidazo[1,2-b]pyridazin-6-yl]-1H-pyrimidine-2,4-dione] came in with a concentration giving a half-maximal response (EC50) at CD73 [2] of 0.32 nM. At CD73 [3], this molecule yielded an IC50 of 0.77 nM.
In turn, `CC1(C)C(=O)N(CC(F)(F)F)c2cc([C@H]3C[C@@H]3c3cc(-c4c[nH]c(=O)[nH]c4=O)nn4c(Cl)cnc34)ccc21` [Example 722, 5-[3-chloro-8-[(1S,2S)-2-[3,3-dimethyl-2-oxo-1-(2,2,2-trifluoroethyl)indolin-6-yl]cyclopropyl]imidazo[1,2-b]pyridazin-6-yl]-1H-pyrimidine-2,4-dione] gave a concentration giving a half-maximal response (EC50) on CD73 [2] of 0.58 nM. On CD73 [3], this molecule gave an IC50 of 1.1 nM.
The like results for `CC1(C)C(=O)N(CC(F)(F)F)c2cc([C@H]3C[C@@H]3c3cc(-c4c[nH]c(=O)[nH]c4=O)nn4c(F)cnc34)cnc21` [Example 723, 5-[8-[(1S,2S)-2-[3,3-dimethyl-2-oxo-1-(2,2,2-trifluoroethyl)pyrrolo[3,2-b]pyridin-6-yl]cyclopropyl]-3-fluoro-imidazo[1,2-b]pyridazin-6-yl]-1H-pyrimidine-2,4-dione] were, in that order, 1.04 nM and 2.75 nM.
The like results for `O=c1[nH]cc(-c2cc(N3C[C@H](Oc4ccc(F)c(C(F)F)c4)C(F)(F)C3)c3nccn3n2)c(=O)[nH]1` [Example 745, (S)-5-(8-(4-(3-(difluoromethyl)-4-fluorophenoxy)-3,3-difluoropyrrolidin-1-yl)imidazo[1,2-b]pyridazin-6-yl)pyrimidine-2,4(1H,3H)-dione] were, in that order, 0.69 nM and 0.62 nM.

Values taken from patent US20240043427A1 (Gilead Sciences, Inc., priority 2020, published 2024).
